Measured values: patent publication US20060128695A1, “Cyclic nucleotide phosphodiesterase inhibitors, preparation and uses” (NEURO3D, priority 2002, published 2006)

How the values were obtained:
Assay type in all cases: biochemical, bovine
[1] = tested on: PDE1; assay: Selectivity: inhibition of PDE1, radioenzymatic phosphodiesterase assay; conditions: 10 μM test compound; vascular smooth muscle
Protocol: (§1) A 3 g segment of bovine aortic media cut into pieces with scissors was homogenized with an ultra-turrax then a potter glass/glass homogenizer in 7 volumes by weight of buffer A containing a protease inhibitor cocktail (20 mM Tris-HCl, 0.25 M saccharose, 2 mM magnesium acetate, 1 mM dithiothreitol, 5 mM EGTA, 2000 U/ml aprotinin, 10 mg/l leupeptin and 10 mg/l soya trypsic inhibitor). The homogenizate was centrifuged at 105,000 g for 1 hour. The supernatant was loaded on a DEAE-Sephacel column (15 x 1.6 cm) pre-equilibrated with buffer B (buffer A without the saccharose, EGTA and protease inhibitors). The column was washed until there was no detectable absorption at 280 nm, then eluted with a linear gradient of NaCl (0-0.5 M) in buffer B. 3-ml fractions were collected and enzyme activity was determined under the conditions described hereinbelow to localize the different enzymes PDE1, PDE3, PDE4 and PDE5 which were aliquoted and frozen at −80° C. (Lugnier et al., Biochem. Phamacol., 1986, 35: 1746-1751). PDE2 was prepared from bovine endothelial cells by the same methods (Lugnier and Schini, Biochem. Pharmacol., 1990, 39: 75-84).
(§2) Cyclic nucleotide phosphodiesterase activity was determined by a radioenzymatic method using tritium-labelled cyclic GMP or AMP (1 μM) as substrate (Lugnier et al., 1986). ^3H-labelled adenosine or guanosine monophosphate formed by hydrolysis of the radiolabelled cyclic nucleotide was then converted to ^3H-labelled adenosine or guanosine in a second reaction with […] in excess. The nucleoside formed was separated from the nucleotides by anion exchange chromatography. Nucleoside radioactivity was determined by liquid scintillation counting. […]
(§3) The activity of the compounds was evaluated on other phosphodiesterase isoforms, particularly basal state or calmodulin-activated PDEl from vascular smooth muscle, PDE3, PDE4 and PDE5 from vascular smooth muscle.
(§4) The results obtained are presented in Tables 1 and 2 hereinbelow and are expressed as the percentage inhibition of enzymatic activity produced by […] of the test compound.

[2] = tested on: PDE4; assay: Selectivity: inhibition of PDE4, radioenzymatic phosphodiesterase assay; conditions: 10 μM test compound; vascular smooth muscle
Protocol: as §1
(§5) Cyclic nucleotide phosphodiesterase activity was determined by a radioenzymatic method using tritium-labelled cyclic GMP or AMP (1 μM) as substrate (Lugnier et al., 1986). ^3H-labelled adenosine or guanosine monophosphate formed by hydrolysis of the radiolabelled cyclic nucleotide was then converted to ^3H-labelled adenosine or guanosine in a second reaction with […] in excess. The nucleoside formed was separated from the nucleotides by anion exchange chromatography. Nucleoside radioactivity was determined by liquid scintillation counting. Enzymatic incubations were carried out under conditions allowing no more than 15% hydrolysis of the substrate; each point was performed in duplicate.
as §3, §4

[3] = target: T1, PDE2 (Bos taurus, UniProt P14099); assay: Inhibition of PDE2, radioenzymatic phosphodiesterase assay
T1 construct: PDE2 was prepared from bovine endothelial cells by the same methods; endogenous in cells; host or cells: bovine endothelial cells
T1 sequence (P14099 1-921): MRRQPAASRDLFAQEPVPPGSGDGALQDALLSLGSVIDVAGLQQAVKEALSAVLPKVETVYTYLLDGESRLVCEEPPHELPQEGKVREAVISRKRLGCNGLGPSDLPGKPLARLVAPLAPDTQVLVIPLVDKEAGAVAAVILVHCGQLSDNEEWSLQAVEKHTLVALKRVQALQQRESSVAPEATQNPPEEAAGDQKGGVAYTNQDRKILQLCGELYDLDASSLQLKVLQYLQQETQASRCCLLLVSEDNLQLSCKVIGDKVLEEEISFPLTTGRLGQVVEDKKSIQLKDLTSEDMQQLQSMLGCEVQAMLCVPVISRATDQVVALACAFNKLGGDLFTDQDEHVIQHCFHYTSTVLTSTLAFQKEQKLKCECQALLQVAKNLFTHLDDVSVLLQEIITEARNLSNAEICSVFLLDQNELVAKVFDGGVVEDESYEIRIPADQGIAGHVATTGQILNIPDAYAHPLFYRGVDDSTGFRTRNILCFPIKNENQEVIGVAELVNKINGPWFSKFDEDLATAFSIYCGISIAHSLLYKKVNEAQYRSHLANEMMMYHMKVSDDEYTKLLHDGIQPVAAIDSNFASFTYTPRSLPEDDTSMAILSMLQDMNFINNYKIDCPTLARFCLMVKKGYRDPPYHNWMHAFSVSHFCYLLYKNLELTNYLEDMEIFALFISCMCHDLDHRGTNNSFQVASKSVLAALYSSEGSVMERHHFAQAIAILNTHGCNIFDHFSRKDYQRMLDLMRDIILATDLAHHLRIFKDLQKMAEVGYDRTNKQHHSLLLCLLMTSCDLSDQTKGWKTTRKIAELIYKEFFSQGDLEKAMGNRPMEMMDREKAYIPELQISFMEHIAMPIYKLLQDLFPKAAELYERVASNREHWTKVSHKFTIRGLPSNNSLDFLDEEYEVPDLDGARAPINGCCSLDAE

[4] = target: T2, PDE3 (Bos taurus, UniProt A0A3Q1M1E8); assay: Selectivity: inhibition of PDE3, radioenzymatic phosphodiesterase assay; conditions: 10 μM test compound; vascular smooth muscle; read-out: PDE3 percentage inhibition at 10 μM
T2 sequence (A0A3Q1M1E8 1-1126): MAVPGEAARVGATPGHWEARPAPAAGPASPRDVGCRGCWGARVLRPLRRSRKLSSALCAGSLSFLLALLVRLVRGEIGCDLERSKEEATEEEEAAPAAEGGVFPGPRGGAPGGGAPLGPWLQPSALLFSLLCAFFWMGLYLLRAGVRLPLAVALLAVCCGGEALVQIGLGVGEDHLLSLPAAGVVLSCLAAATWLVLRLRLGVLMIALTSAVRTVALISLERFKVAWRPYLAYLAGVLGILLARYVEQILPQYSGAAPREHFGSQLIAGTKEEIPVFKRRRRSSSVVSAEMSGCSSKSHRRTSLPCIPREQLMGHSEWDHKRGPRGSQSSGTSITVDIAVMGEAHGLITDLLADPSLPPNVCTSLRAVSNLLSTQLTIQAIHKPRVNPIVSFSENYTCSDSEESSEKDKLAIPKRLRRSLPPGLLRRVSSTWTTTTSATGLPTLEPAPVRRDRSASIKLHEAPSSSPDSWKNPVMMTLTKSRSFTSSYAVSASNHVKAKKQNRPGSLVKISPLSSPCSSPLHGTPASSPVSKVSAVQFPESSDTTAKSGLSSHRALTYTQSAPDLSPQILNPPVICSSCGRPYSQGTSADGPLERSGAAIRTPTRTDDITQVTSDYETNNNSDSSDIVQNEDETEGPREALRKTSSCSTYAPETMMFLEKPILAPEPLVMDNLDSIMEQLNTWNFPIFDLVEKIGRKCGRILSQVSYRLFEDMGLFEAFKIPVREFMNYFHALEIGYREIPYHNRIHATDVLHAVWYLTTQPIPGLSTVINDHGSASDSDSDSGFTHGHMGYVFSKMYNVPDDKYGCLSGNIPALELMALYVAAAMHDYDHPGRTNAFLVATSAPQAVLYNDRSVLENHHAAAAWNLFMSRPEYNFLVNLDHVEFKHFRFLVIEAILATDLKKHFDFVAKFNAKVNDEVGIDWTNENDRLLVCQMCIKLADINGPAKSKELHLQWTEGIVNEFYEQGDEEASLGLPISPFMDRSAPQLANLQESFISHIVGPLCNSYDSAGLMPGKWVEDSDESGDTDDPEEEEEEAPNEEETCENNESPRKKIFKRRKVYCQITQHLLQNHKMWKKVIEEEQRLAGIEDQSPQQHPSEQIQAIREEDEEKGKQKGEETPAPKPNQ
Protocol: as §1, §2, §3, §4

[5] = target: T3, PDE5 (Bos taurus, UniProt Q28156); assay: Selectivity: inhibition of PDE5, radioenzymatic phosphodiesterase assay; conditions: 10 μM test compound; vascular smooth muscle; read-out: PDE5 percentage inhibition at 10 μM
T3 construct: localize the different enzymes PDE1, PDE3, PDE4 and PDE5 which were aliquoted and frozen; from tissue; host or cells: bovine aortic media (vascular smooth muscle)
Protocol: as §1, §5, §3, §4

SMILES | PDE1 percentage inhibition at 10 μM [1] [%] | PDE4 percentage inhibition at 10 μM [2] [%] | IC50 [3] [nM] | inhibition at 10 µM [4] [%] | inhibition at 10 µM [5] [%]
COc1cc2c(cc1OC)N(C)C(=O)CN=C2c1cccc(C(F)(F)F)c1 [Compound 4p, 7,8-dimethoxy-1-methyl-[5-(3-trifluoromethyl)phenyl]-1,3-dihydro-2H-1,4-benzodiazepin-2-one] | 25 | 19 | 1800 | 58 | 26
COc1cc2c(cc1OC)N(C)C(=O)CN=C2c1cccnc1 [Compound 17b, 7,8-dimethoxy-1-methyl-5-(3-pyridyl)-1,3-dihydro-1,4-benzodiazepin-2-one] | 10 | 8 | 1500 | 36 | 14
